In patent US7247641B2, “Compounds, derivatives, compositions, preparation and uses” (MGI GP, Inc., priority 2001, dated 2007):

Assays:
[1] = system: ischemia and reperfusion of the heart in rabbits; conditions: cited from earlier work
[2] = system: focal cerebral ischemia in male Long-Evans rats; assay: Focal cerebral ischemia: right distal MCA cauterization with temporary bilateral CCA occlusion; format: in vivo, rat; conditions: 24 h, mean±SD
Protocol: Focal cerebral ischemia is produced by cauterization of the right distal MCA (middle cerebral artery) with bilateral temporary common carotid artery occlusion in male Long-Evans rats for 90 minutes. All procedures performed on the animals are approved by the University Institutional Animal Care and Use Committee of the University of Pennsylvania. A total of 42 rats (weights: 230-340 g) obtained from Charles River were used in this study. The animals fasted overnight with free access to water prior to the surgical procedure.
Two hours prior to MCA occlusion, varying amounts (control, n=14; 5 mg/kg, n=7; 10 mg/kg, n=7; 20 mg/kg, n=7; and 40 mg/kg, n=7) of the compound, 3,4-dihydro-5-[4-(1-piperidinyl)-butoxy]-1(2H)-isoquinolinone (“DPQ”) were dissolved in dimethyl sulfoxide (DMSO) using a sonicator. A volume of 1.28 ml/kg of the resulting solution was injected intraperitoneally into […].
The rats were then anesthetized with halothane (4% for induction and 0.8%-1.2% for the surgical procedure) in a mixture of 70% nitrous oxide and 30% oxygen. The body temperature was monitored by a rectal probe and maintained at 37.5±0.5° C. with a heating blanket regulated by a homeothermiic blanket control unit (Harvard Apparatus Limited, Kent, U.K.). A catheter (PE-50) was placed into the tail artery, and arterial pressure was continuously monitored and recorded on a Grass polygraph recorder (Model 7D, Grass Instruments, Quincy, Mass.). Samples for blood gas analysis (arterial pH, PaO2 and PaCO2) were also taken from the tail artery catheter and measured with a blood gas analyzer (ABL 30, Radiometer, Copenhagen, Denmark). Arterial blood samples were obtained 30 minutes after MCA occlusion.
The head of the animal was positioned in a stereotaxic frame, and a right parietal incision between the right lateral canthus and the external auditory meatus was made. Using a dental drill constantly cooled with saline, a 3 mm burr hole was prepared over the cortex supplied by the right MCA, 4 mm lateral to the sagittal suture and 5 mm caudal to the coronal suture. The dura mater and a thin inner bone layer were kept, care being taken to position the probe over a tissue area devoid of large blood vessels. The flow probe (tip diameter of 1 mm, fiber separation of 0.25 mm) was lowered to the bottom of the cranial burr hole using a micromanipulator. The probe was held stationary by a probe holder secured to the skull with dental cement. The microvascular blood flow in the right parietal cortex was continuously monitored with a laser Doppler flowmeter (FloLab, Moor, Devon, U.K., and Periflux 4001, Perimed, Stockholm, Sweden). […]

PARP = conditions: read-out: IC50 for inhibiting PARP; reported by Suto et al.; cited from earlier work
[3] = system: MSU crystal induced neutrophil migration in Swiss albino mice; assay: MSU crystal-induced neutrophil recruitment (peritonitis gout model); format: in vivo, mouse; conditions: 6 h
Protocol: Male outbread Swiss albino mice (20-22 g body weight) were purchased from Banton and Kingsman (T. O. strain; Hull, Humberside) and maintained on a standard chow pellet diet with tap water ad libitum and a 12:00 h light/dark cycle. All animals were housed for 1 week prior to experimentation to allow body weight to reach 28-30 g.
1,11b-dihydrobenzopyrano[4,3,2-de ]isoquinolin-1-one was dissolved in 100% DMSO at room temperature at a concentration of 45 mg in 2 ml. The compound was then injected into the peritoneal cavity, so as each mouse received a single dose corresponding to 45 mg/2 ml/kg (e.g. 60 μl for a mouse of 30 g). Control mice received DMSO at 2 ml/kg i.p. A third group of mice which were left untreated were added to control for potential effects of the vehicle. […]
MSU crystal-induced neutrophil recruitment was tested as follows. […] Peritonitis was induced by injection of 3 mg MSU crystals in 0.5 ml PBS (0.1 M, pH 7.4), and the recruitment of neutrophils into the cavity evaluated at the 6 h time point (Getting et al., 1997, J. Pharmacol. Exp. Ther. 283: 123-130). […]
An aliquot (100 μl) of the lavage fluid was then diluted 1:10 in Turk's solution (0.01% crystal violet in 3% acetic acid). The samples were then vortexed and 10 μl of the stained cell solution were placed in a Neubauer haematocymometer and neutrophils numbers counted using a light microscope (Olympus B061). […]

## NC(=O)c1cccc(N)c1 [3-amino-benzamide]
[1]; single injection 10 mg/kg, one minute before occlusion or before reperfusion
  reduction in infarct size in the heart: 32-42%

## O=C1NCCc2c(OCCCCN3CCCCC3)cccc21 [DPQ, 3,4-dihydro-5-[4-(1-piperidinyl)-butoxy]-1(2H)-isoquinolinone]
[2]; 5 mg/kg i.p. 2 h before and 2 h after MCA occlusion, control 165.2±34.0
  damaged volume (infarct volume): 106.7±23.2 mm^3
[2]; 10 mg/kg i.p. 2 h before and 2 h after MCA occlusion, control 165.2±34.0
  damaged volume (infarct volume): 76.4±16.8 mm^3
[2]; 20 mg/kg i.p. 2 h before and 2 h after MCA occlusion, control 165.2±34.0
  damaged volume (infarct volume): 110.2±42.0 mm^3
[2]; 40 mg/kg i.p., no significant difference from control 165.2±34.0
  damaged volume (infarct volume): 135.6±44.8 mm^3
PARP
  IC50: 40 nM

## O=C1N=Cc2cccc3c2C1c1ccccc1O3 (stereo not drawn) [1,11b-dihydrobenzopyrano[4,3,2-de]isoquinolin-1-one]
[3]; 45 mg/kg i.p. 1 h prior to 3 mg MSU crystals, n=8, vehicle group 6.30 ± 0.33
  Neutrophils, mean ± S.E.: 2.85 ± 0.34 (8)* 10^6 per mouse
[3]; 45 mg/kg i.p.
  inhibition of cell influx vs. the vehicle group: 55%

## Oc1cccc2c(O)nccc12 [1,5-dihydroxyisoquinoline]
[1]; single injection 1 mg/kg
  reduction in infarct size: 38-48%
